# Assay results taken from patent publication US4213895A, “N-[N-[N-[ N-[N-(5-Oxo-L-prolyl)-L-histidyl]-L-tryptophyl]-L-seryl]-L-tyrosyl]glycin e azide, an intermediate of the releasing agent of luteinizing hormone (LW) and of follicle stimulating hormone (FSH)” (American Home Products Corporation, priority 1979, dated 1980).
# Legend:
# [1] = test system: induction of ovulation in the rat; assay: Induction of ovulation in the rat, modification of the assay of Arimura et al., Endocrinology 80, 515; type: in vivo; settings: acid addition salt
# Description: (§1) Exp. Biol. Med., 128, 807 (1968).
# [2] = test system: LH- and FSH-releasing; assay: LH- and FSH-releasing activity, radioimmunoassay described by Niswender et al.; settings: acid addition salt
# Description: as §1
# [3] = test system: induction of ovulation in the hamster; assay: Induction of ovulation in the hamster (Arimura et al., Science 174, 511); type: in vivo; settings: acid addition salt
# Description: as §1
# [4] = test system: LH- and FSH-releasing; assay: Bioassays, not specified, comparison with the natural hormone; settings: diacetate salt
# Description: Said last-named compound (VI) is condensed by means of the azide method via the azide, N-[N-[N-[N-[N-(5-oxo-L-prolyl)-L-histidyl]-L-tryptophyl]-L-seryl]-L-tyrosyl]glycine azide, with N-[N-[N-(N-leucyl)-L-arginyl]-L-prolyl]glycinamide diacetate (V) to yield the desired decapeptide 5-oxo-L-prolyl-L-histidyl-L-tryptophyl-L-seryl-L-tyrosylglycyl-L-leucyl-L- arginyl-L-prolylglycinamide (I) which is isolated in the form of its diacetate salt. The latter salt may be converted, if desired, into a different acid addition salt, e.g. a salt with a pharmaceutically acceptable acid, by treatment with the appropriate ion exchange resin in the manner described by Boissonas et al., Helv. Chim. Acta 43, 1349 (1960). Suitable ion exchange resins are strongly basic anion exchange resins, for example those listed in Greenstein and Winitz "Chemistry of the Amino Acids", Hohn Wiley and Sons, Inc., New York and London 1961, Vol. 2, p. 1456. Basically substituted cross-linked polystyrene resins such as Amerlite IRA-400 or IRA-410 are preferred. The above diacetate may also be converted to a salt of low solubility in body fluids by treatment with a slightly water-soluble pharmaceutically acceptable acid. The acid addition salts of the LH- and FSH-releasing hormone produced by the process of this invention with pharmacologically acceptable acids are biologically fully equivalent to the natural hormone. […]
structure (smiles),measurement,setting,value
"CC(C)C[C@H](NC(=O)CNC(=O)[C@H](Cc1ccc(O)cc1)NC(=O)[C@H](CO)NC(=O)[C@H](Cc1c[nH]c2ccccc12)NC(=O)[C@H](Cc1c[nH]cn1)NC(=O)[C@@H]1CCC(=O)N1)C(=O)N[C@@H](CCCNC(=N)N)C(=O)N1CCC[C@H]1C(=O)NCC(N)=O [I, 5-oxo-L-prolyl-L-histidyl-L-tryptophyl-L-seryl-L-tyrosylglycyl-L-leucyl-L-arginyl-L-prolylglycinamide]",activity in induction of ovulation relative to the natural hormone,[1],equally active
same,LH- and FSH-releasing activity relative to the natural hormone,[2],as active as the natural hormone
same,activity in induction of ovulation relative to the natural hormone,[3],equally active
same,potency in bioassays relative to the natural product,[4],as potent as the latter
